Measurements as given in paper PMC10060569 (Frontiers in Pharmacology, 2023).
Like-named read-outs stand apart in the source and are kept apart here.

Target: T1, hP2X2/3R (Homo sapiens, UniProt P56373+Q9UBL9)
T1 construct: expressed in transfected cells; host or cells: Xenopus laevis oocytes (co-injection of cRNAs)
T1 sequence (Q9UBL9 1-471): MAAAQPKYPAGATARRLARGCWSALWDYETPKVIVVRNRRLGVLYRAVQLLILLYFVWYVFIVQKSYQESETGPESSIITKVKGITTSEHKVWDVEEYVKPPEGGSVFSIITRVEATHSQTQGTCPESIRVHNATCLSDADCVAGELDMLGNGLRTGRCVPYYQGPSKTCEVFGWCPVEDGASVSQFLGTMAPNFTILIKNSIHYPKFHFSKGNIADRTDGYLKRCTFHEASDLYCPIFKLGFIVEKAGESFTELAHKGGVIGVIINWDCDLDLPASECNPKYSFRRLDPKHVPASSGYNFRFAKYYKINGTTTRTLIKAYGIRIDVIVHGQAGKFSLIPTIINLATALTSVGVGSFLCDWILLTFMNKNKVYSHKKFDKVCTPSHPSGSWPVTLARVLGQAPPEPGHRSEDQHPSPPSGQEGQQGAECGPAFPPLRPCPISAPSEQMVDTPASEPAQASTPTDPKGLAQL
T1 sequence (P56373 1-397): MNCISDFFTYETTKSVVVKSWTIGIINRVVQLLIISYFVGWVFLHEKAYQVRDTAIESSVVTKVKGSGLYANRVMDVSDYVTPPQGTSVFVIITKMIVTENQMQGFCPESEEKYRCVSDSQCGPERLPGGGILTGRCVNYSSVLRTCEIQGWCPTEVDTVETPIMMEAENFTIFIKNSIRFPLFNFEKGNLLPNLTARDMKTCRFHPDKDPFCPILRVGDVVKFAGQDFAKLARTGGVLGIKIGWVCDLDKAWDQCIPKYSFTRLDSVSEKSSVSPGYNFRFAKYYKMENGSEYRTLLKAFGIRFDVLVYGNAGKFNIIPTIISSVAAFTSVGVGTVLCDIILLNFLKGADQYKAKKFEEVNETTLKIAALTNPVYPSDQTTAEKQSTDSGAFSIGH
Test: TEVC of α,β-meATP-induced currents, heteromeric hP2X2/3R in X. laevis oocytes (steady-state protocol)
Assay type: cell-based
Source text: Oocyte expression plasmids encoding the wild-type (wt) and N-terminally His-tagged (His-) fusion constructs of the hP2X2R, hP2X3R, hP2X4R, and hP2X7R, and the mutant His-^20RMVL^23KVIV^23S^26N-hP2X1R, S^15V-rP2X3R, and His-S^15V-hP2X3R were the same as used in previous research ([Hausmann et al., 2006]; [Wolf et al., 2011]; [Hausmann et al., 2014]; [Obrecht et al., 2019]). In most cases, the N-terminal His-tagged variants of P2XRs were used here and in the previous studies to allow biochemical analyses on affinity-purified proteins using the same constructs. Although this was not required for the present study, it allows for better comparability with our previous studies. Capped cRNAs of different P2XRs were already available in the research group or were synthesized as previously described ([Schmalzing et al., 1991]; [Stolz et al., 2015]). cRNA was injected into collagenase-defolliculated X. laevis oocytes in aliquots of 41 nl or 23 nl (see Supplementary Table S1 for the amount of cRNA used for expression of the indicated P2XR) using a Nanoliter 2000 injector (World Precision Instruments, Sarasota, United States of America) as described previously ([Hausmann et al., 2014]; [Stolz et al., 2015]; [Obrecht et al., 2019]). To express the heteromeric hP2X2/3 receptor, cRNAs encoding His-hP2X2R and wt-hP2X3R were coinjected at a ratio (w/w) of 1:6. Oocytes were stored at 19°C in an oocyte ringer solution (ORi^+) containing 90 mM NaCl, 1 mM KCl, 1 mM CaCl2, 1 mM MgCl2, and 10 mM HEPES (Carl Roth, Karlsruhe, Germany) adjusted to pH 7.4 with NaOH and supplemented with 50 μg/ml gentamicin (AppliChem, Darmstadt, Germany). The procedures followed for the maintenance of and the surgical treatment for X. laevis adults were approved by the governmental animal care and use committee of the State Agency for Nature, Environment, and Consumer Protection (LANUV, Recklinghausen, Germany; reference no. 81-02.04.2019. A355), in compliance with Directive 2010/63/EU of the European Parliament and of the Council on the protection of animals used for scientific purpose.
Ion currents mediated by P2X receptors were evoked by the indicated concentration of ATP or α,β-meATP and were recorded 1 or 2 days after cRNA injection at ambient temperature at a holding potential of −60 mV by two-electrode voltage clamp (TEVC) as previously described ([Hausmann et al., 2006]). Calcium-free ORi^− solution (90 mM NaCl, 1 mM KCl, 2 mM MgCl2, 10 mM HEPES, pH 7.4) was used to avoid bias due to calcium-activated chloride channels (CaCC) endogenously expressed in X. laevis oocytes ([Miledi, 1982]; [Methfessel et al., 1986]). For recordings of wt-hP2X7R, the composition of the ORi^− solution was modified according to protocols described previously and contained 100 mM NaCl, 2.5 mM KCl, 1 mM MgCl2, 5 mM HEPES, pH 7.4 ([Klapperstück et al., 2000]). The oocytes were continuously superfused with ORi^− by gravity flow (5–10 ml/min). The agonists ATP or α,β-meATP and the investigated NSAIDs were diluted in ORi^− on the day of the recording. The following agonist concentrations were used for the different P2X subtypes: 1 μM ATP (hP2X1R mutant, hP2X3R, rP2X3R, S^15V-hP2X3R, and S^15V-rP2X3R); 10 μM ATP (hP2X2R and hP2X4R); 300 μM free ATP^4- (hP2X7R); and 1 μM α,β-meATP (hP2X2/3R). […]

O=C(O)Cc1ccccc1Nc1c(Cl)cccc1Cl [Diclofenac, diclofenac]
IC50 (1 µM α,β-meATP, steady-state protocol, X. laevis oocytes): 76.7 µM
reduction of current amplitude in the presence of 3–10 µM diclofenac (3–10 µM diclofenac): 20%–30%
inhibition at 30 µM (read-out: % inhibition by 30 µM diclofenac of 1 µM α,β-meATP-induced current): 44.8%
inhibition at 30 µM (read-out: % inhibition by 30 µM diclofenac of 30 µM α,β-meATP-induced current): 25.1%
inhibition at 1000 µM (read-out: Max. inhibition at 1 mM): 97%
